Laboratory results as given in patent US9029078B2, “Perfusion and/or preservation solution for organs” (Philadelphia College of Osteopathic Medicine, priority 2005, dated 2015).
Where no end group is shown, it is not given here.

Experiments:
[1] = system: PMN infiltration into the myocardium of isolated perfused rat hearts; assay: Histological assessment of total intravascular and infiltrated PMNs in post-reperfusion cardiac tissue
Description: FIG. 4a. Histological assessment of total intravascular and infiltrated PMNs in isolated perfused rat heart samples taken from 3 rats per group and 10 areas per heart. […] Hatched boxes represent non-PMN perfused hearts and black boxes represent PMN-perfused hearts. **P<0.01, from I/R+PMNs.
(§1) Data were recorded every 5 min for 45 min post-reperfusion. After each experiment, the left ventricle was isolated, fixed in 4% paraformaldehyde and stored at 4° C. for later histological analysis.
The cardiac injury associated with I/R in this model was closely correlated with the substantial number of PMNs infiltrating the myocardium within the 45 min reperfusion period. During reperfusion, a significant number of PMNs transmigrated into the myocardium, increasing from less than 25 PMN/mm^2 in Sham I/R hearts to more than 180 PMN/mm^2 in I/R+PMN hearts at the end of the reperfusion period (FIG. 4a).

[2] = system: isolated perfused rat hearts (I/R+PMNs); assay: Isolated perfused rat heart, 20 min ischemia / 45 min reperfusion with PMNs: cardiac contractile function (LVDP, +dP/dtmax, LVEDP); conditions: for +dP/dtmax recovered to, of initial baseline / LVDP recovered to, of initial baseline: 45 min post-reperfusion
Description: as §1

PMA-stimulated rat PMNs = assay: Superoxide release from PMA-stimulated rat PMNs; type: cell-based
Description: FIG. 6. Superoxide release from rat PMNs. Superoxide release was measured from 5×10^6 PMNs after phorbol-12-myristate-13-acetate (PMA) (15 nM) stimulation. Superoxide dismutase (SOD) (10 μg/ml) was employed as a positive control. The change in absorbance (Δ) was measured 360 sec after PMA addition (peak response). […] All values are means± SEM. Numbers at bottom of bars show the numbers of separate experiments per group.
FIG. 18. Superoxide release from rat PMNs. Superoxide release was measured from 5×10^6 PMNs after PMA (15 nM) stimulation. SOD (10 μg/ml) was employed as a positive control. The change in absorbance (Δ) was measured 360 sec after PMA addition (peak response). […] All values are means± SEM. Numbers at bottom of bars show the numbers of separate experiments per group.
FIG. 22. Superoxide release from rat PMNs. Superoxide release was measured from 5×10^6 PMNs after PMA (15 nM) stimulation. The change in absorbance (Δ) was measured 360 sec after PMA addition (peak response). […] All values are means± SEM. Numbers at bottom of bars show the numbers of separate experiments per group.

rat aortic endothelium = assay: Measurement of NO release from rat aortic segments
Source text: FIG. 5. Measurement of NO release from rat aortic segments. […] All values are expressed as means± SEM. Numbers at bottom of bars are numbers of separate experiments per group. *p<0.05, **p<0.01, from basal values. FIG. 10. Measurement of NO release from rat aortic segments. […] All values are expressed as means± SEM. Numbers at bottom of bars are numbers of separate experiments per group. *p<0.05, **p<0.01, from basal values. FIG. 17. Measurement of NO release from rat aortic segments. […] All values are expressed as means± SEM. Numbers at bottom of bars are numbers of separate experiments per group. **p<0.01, from basal values. PMN adherence to coronary vascular endothelium was also evaluated within the assessment of total intravascular and infiltrated PMNs. […] NO release from rat aortic endothelium was measured to determine if PKC ζ peptide inhibitor provides cardioprotection by a mechanism involving increased endothelial NO release. […] The eNOS inhibitor, L-NAME, was used as another control in order to decrease basal release of NO to zero.

[3] = system: PMN adherence to coronary vascular endothelium; assay: Histological assessment of intravascular PMNs adhering to the coronary vasculature; set-up: species or system rat; conditions: I/R+PMN hearts, 5 μM
Description: FIG. 4b. Histological assessment of intravascular PMNs that adhered to the coronary vasculature in isolated perfused rat heart samples taken from 3 rats per group
and 10 areas per heart. […] Hatched boxes represent non-PMN perfused hearts and black boxes represent PMN-perfused hearts. All values are mean numbers of PMNs/mm^2 of heart area± SEM.
PMN adherence to coronary vascular endothelium was also evaluated within the assessment of total intravascular and infiltrated PMNs. […] NO release from rat aortic endothelium was measured to determine if PKC ζ peptide inhibitor provides cardioprotection by a mechanism involving increased endothelial NO release. […] The eNOS inhibitor, L-NAME, was used as another control in order to decrease basal release of NO to zero.

[4] = I/R+PMN hearts, 5 μM + L-NAME 50 μM

Substance: PKC ζ peptide inhibitor: peptide inhibitor of protein kinase C zeta; preferred sequence SEQ ID NO: 2, preferably myristoylated; from Genemed Synthesis (SIYRRGARRWRKL; not fully specified; listed as Homo sapiens)
- Infiltrated PMNs compared to 1 μM treated hearts ([1]; 2.5 and 5 μM treated hearts): significantly fewer infiltrated PMNs
- Total intravascular and infiltrated PMNs vs I/R+PMNs (in words) ([1]; I/R+PMN hearts): significantly attenuated
- Reduction in PMN infiltration into post-reperfused cardiac tissue ([1]; I/R+PMN hearts, 1 μM): 20±6%
- Reduction in PMN infiltration into post-reperfused cardiac tissue ([1]; I/R+PMN hearts, 2.5 μM): 46±4%
- Reduction in PMN infiltration into post-reperfused cardiac tissue ([1]; I/R+PMN hearts, 5 μM): 48±3%
- Effect on PMN infiltration in the presence of L-NAME (in words) ([1]; I/R+PMN hearts, with L-NAME): blocked
- LVDP of I/R+PMN group compared to treated I/R+PMN group (time course) ([2]; 5 μM, reperfusion 0 to 45 min): significant and sustained reduction
- +dP/dtmax recovered to, of initial baseline ([2]; I/R+PMN hearts, 1 μM): 46±6%
- LVDP recovered to, of initial baseline ([2]; I/R+PMN hearts, 1 μM): 57±10%
- +dP/dtmax recovered to, of initial baseline ([2]; I/R+PMN hearts, 2.5 μM): 75±5%
- LVDP recovered to, of initial baseline ([2]; I/R+PMN hearts, 2.5 μM): 83±4%
- +dP/dtmax recovered to, of initial baseline [2, 4]: 54±9%
- LVDP recovered to, of initial baseline [2, 4]: 58±7%
- +dP/dtmax recovered to, of initial baseline ([2]; I/R+PMN hearts, 5 μM): 76±5%
- LVDP recovered to, of initial baseline ([2]; I/R+PMN hearts, 5 μM): 84±4%
- Lowest effective dose ([2]; I/R+PMN hearts, LVDP and +dP/dtmax): 2.5 µM
- Protective effect on +dP/dt max in the presence of L-NAME (in words) ([2]; I/R+PMN hearts, with L-NAME): blocked
- Protective effect on LVDP in the presence of L-NAME (in words) ([2]; I/R+PMN hearts, with L-NAME): significantly blocked
- PMN-induced contractile dysfunction / decrease in +dP/dt max (in words) ([2]; final +dP/dt max after reperfusion, vs I/R+PMNs): attenuated
- PMN-induced contractile dysfunction / decrease in LVDP (in words) ([2]; final LVDP, 45 min post reperfusion, vs I/R+PMNs): attenuated
- Superoxide release vs PMA-stimulated rat PMNs (in words) (PMA-stimulated rat PMNs; 1 μM): no difference
- Inhibition of PMN superoxide release (PMA-stimulated rat PMNs; 15 μM): 82%
- Inhibition of superoxide release (PMA-stimulated rat PMNs; 2.5-15 μM, PMA 15 nM): 33-82%
- Superoxide release after PMA (15 nM) stimulation (in words) (PMA-stimulated rat PMNs; 360 sec after PMA): significantly inhibited
- Endothelial NO release vs basal NO release (in words) (rat aortic endothelium): significantly increased
- NO release compared to basal NO release (rat aortic endothelium; 1 μM): not significantly different
- Increase in NO release compared to basal NO release (rat aortic endothelium; 2.5 μM): 47±2%
- Increase in NO release compared to basal NO release (rat aortic endothelium; 5 μM): 54±5%
- NO release from endothelium removed (denuded) rat aortic segments (rat aortic endothelium; 5 μM, denuded segments): not different from L-NAME-treated segments
- Increase in NO release compared to basal NO release (rat aortic endothelium; 15 μM): 91±15%
- Induced production of NO after treating the endothelium with L-NAME (rat aortic endothelium; L-NAME 400 μM): completely inhibited
- Reduction in adherent PMNs to the coronary endothelium (not significant, p<0.06) [3]: 43±10%
